Measurements as given in US6228836A, “Permucous preparation” (Mitsubishi-Tokyo Pharmaceuticals, Inc., priority 1997, dated 2001).

Parameters: species or system rats
Conditions: rat, in vivo
Experimental: Eight-week-old female rats were used, with five per group. The rats were administered 100 μL/kg of the test sample into the nasal cavities once a day, for 7 continuous days. On the 8th day the nasal cavities were extracted, and after dividing them into 3 parts from the nasal cavity opening to the deep end of the nasal cavity, they were fixed with formalin to prepare specimens. After 10-14 days of fixing, a histopathological examination was made of the state of the mucosa, exudation and any bleeding.
Mild irritation was judged when abnormalities were found in the nasal mucosa at sections near the nasal cavity opening, and moderate to severe irritation was judged when the sections where abnormalities were found were further to the deep end. Moderate or greater irritation was also judged when degeneration, ablation, exudation or bleeding was found on the nasal mucosa epithelium at sections near the nasal cavity opening.
As controls there were used physiological saline and commercially available desmopressin (Kyowa Hakko Kogyo, KK.)

For NC(=O)CC[C@@H]1NC(=O)[C@H](Cc2ccccc2)NC(=O)[C@H](Cc2ccc(O)cc2)NC(=O)CCSSC[C@@H](C(=O)N2CCC[C@H]2C(=O)N[C@H](CCCN=C(N)N)C(=O)NCC(N)=O)NC(=O)[C@H](CC(N)=O)NC1=O [Desmopressin, desmopressin], which “Nasal cavity mucosa irritation: Mild” value is on record?
The value was 0.

And the “Nasal cavity mucosa irritation: Moderate” value?
Its value is 0.

And the “Nasal cavity mucosa irritation: Normal” value?
The value was 5.

What about the “Nasal cavity mucosa irritation: Severe” value of the same compound?
The value was 0.

And the “Nasal mucosa irritation, histopathological finding / judgement (in words)” value?
Its value is “No irritation”.

For C[C@H](CCC(=O)O)[C@H]1CC[C@H]2[C@@H]3CC[C@@H]4C[C@H](O)CC[C@]4(C)[C@H]3C[C@H](O)[C@]12C [sodium deoxycholate], which “Nasal mucosa irritation, histopathological finding / judgement (in words)” value is on record?
The value was “irritating effect on the nasal cavity mucosa”.
